Reference: patent US5705649A, “Protein staining compositions and methods” (Promega Corporation, priority 1995, dated 1998)

What was measured:
[1] = tested on: Promega Mid Range Molecular Weight Standards; test: Detection of fractionated protein in SDS-PAGE gels using dansyl derivatives made in acetone; settings: for lowest protein per band visible: 2% (v/v) eluate in 10% methanol
Method: Several 15-well, SDS-PAGE minigels were poured as described in Example 27 and loaded with Promega Mid Range Molecular Weight Standards diluted as described in Example 27 to provide samples containing 1000, 300, 100, 50, 25, 12.5, and 6.25ng of each protein per band in separate lanes of the gel. The samples were fractionated by application of 20 mA per gel until the tracking dye reached the bottom of the gel. All the gels were placed in 10% trichloroacetic acid for 5 min and then incubated for 10 min in 10% (v/v) methanol. The gels were then incubated in a 10% methanol solution containing 2% (v/v) of the derivative eluates (dissolved in 50 ml ethanol) described in Example 28. The gels were transferred to a transilluminator and both visualized and photographed after two hours of staining. The following observations were made. Only the lanes containing 1000 and 300ng of protein per band were visible in the gel incubated with the n-butyl dansyl derivative. The lanes containing the 1000, 300, 100, 50, 25ng per band were visible in the gel incubated with the n-hexyl derivative as were some of the bands in the 12.5 ng per band lane.
After overnight incubation in the stain solutions, the gels were re-observed and rephotographed.
The gels were then placed in 1% acetic acid to remove any unbound stain and rephotographed after three hours of incubation in this solution at room temperature.

[2] = Spectral analyses of Coomassie Blue R and Promega Green 1, 2, 3; type: physicochemical; settings: 1:1 methanol:water, 700 to 340 nm
Method: The three solutions of Promega Green 1, 2, and 3, from examples 1, 2 and 3 respectively, were diluted approximately 500 fold into a 1:1 solution of methanol:water. The spectra of the resulting solutions and of a 12 μg/ml solution of Coomassie Blue R (in 1:1 methanol:water) were recorded from 700 to 340 nm versus 1:1 methanol:water. […] All of the derivatives gave essentially identical spectra; however, the maximal absorbance of the diluted Promega Green i was about twice that seen for the other derivatives. The derivatives had two peak absorptions in the region of the spectrum scanned, a major peak at around 630 nm and a second peak at around 440 nm. The following absorbances were recorded at the peaks near 630 nm for the three Promega Green dye solutions (diluted 1:500 in 1:1 methanol:water): […]

[3] = tested on: Promega Mid Range Molecular Weight Standards; test: Post-electrophoretic detection of protein with purified dansyl derivatives
Method: Samples of the eluates from purification of the derivatives were diluted 20-fold with ethanol and the absorption of the resulting solutions from 400 to 220 nm was measured. The absorption of the solutions at 328 nm was used as an indication of the concentration of the derivative in the staining studies in Example 27.
Several SDS-PAGE minigels were made as described in Experiments with Gene Fusions, Silhavy, Berman, Enquist, supra, using the SDS concentrations described by the authors. Samples of Promega Mid Range Molecular Weight Standards were diluted into the loading solution described in the reference above to produce solutions containing 200, 100, 50, 25, and 12.5 ng of each protein species in 10 μl of solution. These solutions were loaded onto the gels and the samples were fractionated in the gels by application of 10 mA per gel until the tracking dye for the samples reached the bottom of the gel. The gels were then rinsed 1 min in distilled water, 15 min in 10% trichloracetic acid (w/v), and then for 15 min in 10% methanol (v/v). The gel segments, approximately 5×6 cm containing the fractionated standard, were then transferred to a 2% ethanol solution (50 ml) containing 0.05 OD328 -equivalent of each of the dansyl derivatives (see Example 26).
The gel segments were returned to their respective staining solutions and were incubated overnight. The following morning, all of the gel segments were again visualized on the transilluminator and photographed as described above. […] In general, relatively equivalent staining of bands was obtained as determined by the strength of the fluorescent signal observed for the various fractionated species.

[4] = tested on: Promega Mid Range Molecular Weight standard; test: Post-electrophoretic staining with fluorescein isothiocyanate derivatives; settings: for lowest protein per band stained: after overnight in 10% methanol; for lowest protein per band with visible bands / standards detected: 1:500 in 10% methanol, 1 hour, destained 30 min
Method: Six 12% gels were made as described in Example 27 and were loaded with diluted Promega Mid Range Molecular Weight standard to produce lanes containing, per band, 1000, 500, 200, 100, 75, 50, 25 and 10 ng of protein. The gel was run as described in Example 27 and then the gels were incubated 15 min in 50% methanol. The gels were then transferred to individual 50 ml staining solutions, which were stock derivatized dye solutions of Example 36 diluted 1:500 with 10% methanol. After one hour, these solutions were removed and destaining with 50 ml of 10% methanol was performed. After an additional 30 min. the gels were visualized on a transilluminator and photographed. Protein bands were visible for the gels stained with amino fluorescein and p-amino benzoic acid fluorescein derivatives, however the bands were seen only in the lanes containing 1000, 500, and 200 ng of protein per band. […] At this point, the gel stained with the ethyl p-amino benzoyl derivative allowed detection of all of the proteins in the lanes containing as little as 75 ng of protein per band.
The gels were then placed in 50 ml of 10% methanol and allowed to incubate overnight at room temperature. After overnight incubation, the gels were visualized on a transilluminator and photographed. […] The gel stained with the amino derivative (reaction 5) had faded to the point where protein species were only detected in the 1000 and 500 ng protein per band lanes. However, in these lanes, only particular protein species were stained, as described above.

With `CCOC(=O)c1ccc(NS(=O)(=O)c2cccc3c(N(C)C)cccc23)cc1` the “lowest protein per band visible” value ([1]; two hours of staining) was 25 ng.
With `CCOc1ccc(Nc2ccc(C(=C3C=CC(=[N+](CC)Cc4cccc(S(=O)(=O)[O-])c4)C=C3)c3ccc(N(CC)Cc4cccc(S(=O)(=O)O)c4)cc3)cc2)cc1` [Coomassie Blue R, reference compound] the “maximal absorbance wavelength (major peak)” value [2] was “around 590 nm”.
With `CN(C)c1cccc2c(S(N)(=O)=O)cccc12` [control dansyl amine, reference compound] the “visibility of protein bands” value ([3]; overnight staining) was “no bands were seen”.
For `CCCCCCCCCCNS(=O)(=O)c1cccc2c(N(C)C)cccc12` [decyl derivative], the “lowest protein per band visible” value ([1]; two hours of staining) was 25 ng, the “protein per band at which most of the protein species were visible” value ([1]; after 1% acetic acid, three hours) was 6.25 ng and the “protein per band at which at least some of the bands could be visualized” value ([1]; overnight staining) was 12.5 ng.
In the case of `O=C(O)c1cc(NC(=S)Nc2ccc(NC(=S)Nc3ccc(-c4c5ccc(=O)cc-5oc5cc(O)ccc45)c(C(=O)O)c3)cc2)ccc1-c1c2ccc(=O)cc-2oc2cc(O)ccc12` [difluorescein phenylenediamine], the “lowest protein per band stained” value [4] is reported as 200 ng.
For `CCOC(=O)c1ccc(NC(=S)Nc2ccc(-c3c4ccc(=O)cc-4oc4cc(O)ccc34)c(C(=O)O)c2)cc1` [ethyl p-amino benzoic acid fluorescein], the “lowest protein per band with visible bands” value [4] was 75 ng and the “lowest protein per band stained” value [4] was 200 ng.
For `CCCCNS(=O)(=O)c1cccc2c(N(C)C)cccc12` [n-butyl dansyl derivative], the “lowest protein per band visible” value ([1]; two hours of staining) was 300 ng.
With `CCCCCCNS(=O)(=O)c1cccc2c(N(C)C)cccc12` [n-hexyl derivative] the “lowest protein per band visible” value ([1]; two hours of staining) was 25 ng and the “protein per band at which some of the bands were visible” value ([1]; two hours of staining) was 12.5 ng.
With `CCCCCCCCNS(=O)(=O)c1cccc2c(N(C)C)cccc12` [octyl dansyl derivative] the “staining quality compared to the amino or butyl derivatives” value [3] was “much better stains compared to the amino or butyl derivatives”, the “visibility of protein bands” value ([3]; 15 min staining, 0.05 OD328-equivalent in 2% ethanol, 200-12.5 ng per band) was “easily visualized in the photograph of the gel” and the “change in staining of bovine serum albumin and ovalbumin” value ([3]; overnight staining) was “somewhat fainter after the overnight incubation”. For the same compound, the “visibility of protein bands” value ([3]; overnight staining) was “easily visible” and the “staining result relative to n-hexyl derivative” value ([1]; two hours of staining) was “Essentially equivalent results, but with lower fluorescence intensities”.
With `O=C(O)c1ccc(NC(=S)Nc2ccc(-c3c4ccc(=O)cc-4oc4cc(O)ccc34)c(C(=O)O)c2)cc1` [p-amino benzoic acid fluorescein] the “lowest protein per band with visible bands” value [4] was 200 ng, the standards detected [4] was 97, 55, 40 and 31 kDa and the “lowest protein per band stained” value [4] was 200 ng.
With `NC(=S)Nc1ccc(-c2c3ccc(=O)cc-3oc3cc(O)ccc23)c(C(=O)O)c1` [reference compound] the “lowest protein per band with visible bands” value [4] was 200 ng, the standards detected [4] was 97, 66, 55 and 40 kDa and the “lowest protein per band stained” value [4] was 500 ng.
